Laboratory results taken from patent US8754115B2, “Fungicidal pyrazoles” (E I du Pont de Nemours and Company, priority 2010, dated 2014).
Marks after values point to notes of the source that are not given here.

Assays:
Format in all cases: in vivo
[1] = tested on: Blumeria graminis f. sp. tritici; assay: Test F: preventive spray on wheat seedlings, visual disease rating (wheat powdery mildew)
From the text: (§1) General protocol for preparing test suspensions for Tests A-F: the test compounds were first dissolved in acetone in an amount equal to 3% of the final volume and then suspended at the desired concentration (in ppm) in acetone and purified water (50/50 mix by volume) containing 250 ppm of the surfactant Trem® 014 (polyhydric alcohol esters). The resulting test suspensions were then used in Tests A-F. Spraying a 200 ppm test suspension to the point of run-off on the test plants was the equivalent of a rate of 800 g/ha. Unless otherwise indicated, the rating values indicate a 200 ppm test suspension was used. (An asterisk “*” next to the rating value indicates a 40 ppm test suspension was used.)
The test suspension was sprayed to the point of run-off on wheat seedlings. The following day the seedlings were inoculated with a spore dust of Blumeria graminis f. sp. tritici, (also known as Erysiphe graminis f. sp. tritici, the causal agent of wheat powdery mildew) and incubated in a growth chamber at 20° C. for 8 days, after which time visual disease ratings were made.
(§2) Results for Tests A-F are given in Table A. In the Table, a rating of 100 indicates 100% disease control and a rating of 0 indicates no disease control (relative to the controls). A dash (-) indicates no test results. An asterisk “*” next to the rating value indicates a 40 ppm test suspension was used.

[2] = tested on: Septoria nodorum; assay: Test C: preventive spray on wheat seedlings, visual disease rating (Septoria glume blotch)
From the text: as §1
(§3) The test suspension was sprayed to the point of run-off on wheat seedlings. The following day the seedlings were inoculated with a spore suspension of Septoria nodorum (the causal agent of Septoria glume blotch) and incubated in a saturated atmosphere at 24° C. for 48 h, and then moved to a growth chamber at 20° C. for 6 days, after which time visual disease ratings were made.
as §2

[3] = tested on: Puccinia recondite f. sp. tritici; assay: Test E1: curative spray on wheat seedlings after inoculation, visual disease rating (wheat leaf rust)
From the text: as §1
Wheat seedlings were inoculated with a spore suspension of Puccinia recondite f. sp. tritici (the causal agent of wheat leaf rust) and incubated in a saturated atmosphere at 20° C. for 24 h, and then moved to a growth chamber at 20° C. for 2 days. After 2 days, the test suspension was sprayed to the point of run-off on the wheat seedlings, and then the seedlings were moved back to the growth chamber at 20° C. for 6 days. Upon removal, visual disease ratings were made.
as §2

[4] = tested on: Puccinia recondite f. sp. tritici; assay: Test E2: preventive spray on wheat seedlings, visual disease rating (wheat leaf rust)
From the text: as §1
as §3, with “Puccinia recondite f. sp. tritici” for “Septoria nodorum”, “wheat leaf rust)” for “Septoria glume blotch)”, “20°” for “24°”, “24” for “48”, “7” for “6”
as §2

[5] = tested on: Septoria tritici; assay: Test D: preventive spray on wheat seedlings, visual disease rating (wheat leaf blotch)
From the text: as §1
as §3, with “tritici” for “nodorum”, “wheat leaf” for “Septoria glume”, “in” for “in a”, “19” for “6”
as §2

[6] = tested on: Alternaria solani; assay: Test B: preventive spray on tomato seedlings, visual disease rating (tomato early blight)
From the text: as §1
as §3, with “tomato” for “wheat”, “Alternaria solani” for “Septoria nodorum”, “tomato early blight)” for “Septoria glume blotch)”, “27°” for “24°”, “5” for “6”
as §2

[7] = tested on: Botrytis cinerea; assay: Test A: preventive spray on tomato seedlings, visual disease rating (tomato Botrytis)
From the text: as §1
The test suspension was sprayed to the point of run-off on tomato seedlings. The following day the seedlings were inoculated with a spore suspension of Botrytis cinerea (the causal agent of tomato Botrytis) and incubated in saturated atmosphere at 20° C. for 48 h, and then moved to a growth chamber at 24° C. for 3 days, after which time visual disease ratings were made.
as §2

[8] = asterisk: 40 ppm test suspension
[9] = no asterisk: standard test suspension, not 40 ppm, 100 = 100% disease control, 0 = none
[10] = no asterisk: standard test suspension, not 40 ppm

| SMILES | Test F rating (% disease control) [1, 8] | Test C rating (% disease control) [2, 8] | Test E2 rating (% disease control) [4, 8] | Test D rating (% disease control) [5, 8] | Test A rating (% disease control) [7, 8] | also measured |
| --- | --- | --- | --- | --- | --- | --- |
| Cc1nn(C)c(-c2ccc(F)cc2F)c1C(O)c1ccc(F)cc1F (stereo not drawn) [Compound 72, α-(2,4-difluorophenyl)-5-(2,4-difluorophenyl)-1,3-dimethyl-1H-pyrazole-4-methanol] | – | – | – | – | – | pest or weed control at 40 ppm ([1]; Blumeria graminis, 192 h, asterisk: 40 ppm test suspension): 98%; pest or weed control at 40 ppm ([2]; Parastagonospora nodorum, 192 h, asterisk: 40 ppm test suspension): 0%; pest or weed control at 40 ppm ([3]; 144 h, asterisk: 40 ppm test suspension): 18%; pest or weed control at 40 ppm ([4]; 192 h, asterisk: 40 ppm test suspension): 96%; pest or weed control at 40 ppm ([5]; Zymoseptoria tritici, 504 h, asterisk: 40 ppm test suspension): 100%; pest or weed control at 40 ppm ([6]; Alternaria solani, 168 h, asterisk: 40 ppm test suspension): 53% |
| Cc1nn(C)c(-c2c(F)cccc2Cl)c1C(F)c1c(F)cc(F)cc1F (stereo not shown) [Compound 75] | 99* % | 87* % | 100* % | 100* % | – | Test E1 rating (% disease control) [3, 8]: 74* %; Test B rating (% disease control) [6, 8]: 100* % |
| Cc1nn(C)c(-c2c(F)cccc2F)c1C(F)c1ccc(Cl)cc1Cl (stereo not shown) [Compound 92] | 100* % | 94* % | 99* % | 100* % | – | Test E1 rating (% disease control) [3, 8]: 74* %; Test B rating (% disease control) [6, 8]: 99* % |
| Cc1nn(C)c(-c2c(F)cccc2Cl)c1C(O)c1ccc(F)cc1Br (stereo not shown) [compound 37] | – | – | – | – | – | Test A rating (% disease control) [7, 9]: 100%; Test F rating (% disease control) [1, 10]: 100%; Test C rating (% disease control) [2, 10]: 100%; Test E2 rating (% disease control) [4, 10]: 100%; Test D rating (% disease control) [5, 10]: 100%; Test B rating (% disease control) [6, 10]: 99% |
| Cn1nc(Br)c(C(=O)c2ccc(F)cc2F)c1-c1ccc(F)cc1Cl [compound 48] | – | – | – | – | – | Test A rating (% disease control) [7, 9]: 26%; Test F rating (% disease control) [1, 10]: 0%; Test C rating (% disease control) [2, 10]: 0%; Test E2 rating (% disease control) [4, 10]: 0%; Test D rating (% disease control) [5, 10]: 99%; Test B rating (% disease control) [6, 10]: 0% |
| Cc1nn(C)c(-c2ccc(F)cc2Cl)c1Nc1ccc(F)cc1F [compound 49] | 87* % | 0* % | 74* % | 96* % | 100* % | Test B rating (% disease control) [6, 8]: 0* % |
| Cc1nn(C)c(-c2c(Cl)cccc2Cl)c1C(O)c1c(F)cc(F)cc1F (stereo not shown) [compound 70] | – | – | – | – | – | Test F rating (% disease control) [1, 10]: 99%; Test C rating (% disease control) [2, 10]: 60%; Test E1 rating (% disease control) [3, 10]: 94%; Test E2 rating (% disease control) [4, 10]: 100%; Test D rating (% disease control) [5, 10]: 100%; Test B rating (% disease control) [6, 10]: 99% |
| Cc1nn(C)c(-c2ccc(F)cc2F)c1C(O)c1ccc(F)cc1Cl (stereo not shown) [compound 71] | 99* % | 73* % | 99* % | 100* % | – | Test E1 rating (% disease control) [3, 8]: 88* %; Test B rating (% disease control) [6, 8]: 78* % |
| Cc1nn(C)c(-c2ccc(F)cc2Br)c1C(=O)c1ccc(F)cc1F [compound 73] | 34* % | 0* % | 0* % | 14* % | – | Test E1 rating (% disease control) [3, 8]: 0* %; Test B rating (% disease control) [6, 8]: 60* % |
| Cc1nn(C)c(-c2ccccc2I)c1C(=O)c1ccc(F)cc1Br [compound 81] | – | – | – | – | – | Test A rating (% disease control) [7, 9]: 54%; Test F rating (% disease control) [1, 10]: 99%; Test C rating (% disease control) [2, 10]: 0%; Test E2 rating (% disease control) [4, 10]: 0%; Test D rating (% disease control) [5, 10]: 0%; Test B rating (% disease control) [6, 10]: 46% |
| Cc1nn(C)c(-c2c(Cl)cncc2Cl)c1C(=O)c1ccc(F)cc1Cl [compound 96] | 26* % | 0* % | 0* % | 0* % | 60* % | Test B rating (% disease control) [6, 8]: 0* % |
| Cn1nc(OC(F)F)c(C(O)c2ccc(F)cc2Cl)c1-c1c(F)cccc1F (stereo not shown) [compound 128] | 56* % | 0* % | 85* % | 100* % | 43* % | – |
| COc1nn(C)c(-c2c(F)cccc2Cl)c1C(O)c1ccc(F)cc1C (stereo not shown) [compound 140] | 100* % | 99* % | 99* % | 100* % | 100* % | – |
| COc1nn(C)c(-c2c(F)cc(F)cc2Cl)c1C(O)c1ccc(F)cc1Cl (stereo not shown) [compound 141] | 99* % | 97* % | 99* % | 100* % | 100* % | – |
| COc1ccc(C(O)c2c(OC)nn(C)c2-c2c(F)cccc2Cl)c(Cl)c1 (stereo not shown) [compound 142] | 100* % | 60* % | 100* % | 100* % | 100* % | – |
| COc1ccc(C(O)c2c(OC)nn(C)c2-c2c(F)cccc2Cl)c(F)c1 (stereo not shown) [compound 143] | 98* % | 0* % | 99* % | 100* % | 100* % | – |
| COc1nn(C)c(-c2c(F)cccc2Cl)c1C(O)c1c(F)ccc(F)c1Cl (stereo not shown) [compound 144] | 98* % | 0* % | 100* % | 100* % | 78* % | – |
| COc1nn(C)c(-c2c(F)cccc2Cl)c1C(O)c1c(F)ccc(F)c1F (stereo not shown) [compound 145] | 73* % | 0* % | 82* % | 35* % | 26* % | – |
| COc1ccc(C(O)c2c(C)nn(C)c2-c2ccc(F)cc2Cl)c(Cl)c1 (stereo not shown) [compound 169] | 0* % | – | 88* % | 68* % | 0* % | – |
| COc1ccc(C(O)c2c(C)nn(C)c2-c2c(F)cccc2Cl)c(Cl)c1 (stereo not shown) [compound 170] | 98* % | – | 100* % | 100* % | 100* % | – |
| COc1cc(F)c(-c2c(C(O)c3ccc(F)cc3Cl)c(C)nn2C)c(F)c1 (stereo not shown) [compound 171] | 89* % | – | 100* % | 100* % | 100* % | – |
| COc1cc(F)c(-c2c(C(O)c3ccc(F)cc3F)c(C)nn2C)c(F)c1 (stereo not shown) [compound 172] | 100* % | – | 100* % | 100* % | 99* % | – |
| COc1cc(F)c(-c2c(C(O)c3c(F)cc(F)cc3F)c(C)nn2C)c(F)c1 (stereo not shown) [compound 173] | 95* % | – | 100* % | 100* % | 87* % | – |
